From patent US9156801B2, “2-substituted oleanolic acid derivative, method preparing for same, and application thereof” (HANGZHOU BENSHENG PHARMACEUTICAL CO., LTD., priority 2011, dated 2015)
Converted amounts (≈) assume the structure as drawn.

Assays:
RPMI8226 cell line = assay: multiple myeloma cell growth inhibition, MTT; type: cell-based; conditions: Homo sapiens, RPMI-8226; for inhibition at 16 µg/mL: RPMI8226, 16 μg/mL compound, 72 h, read-out: IR (cell proliferation inhibition rate); for IC50: RPMI8226, 72 h
In short: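 Viability was measured by MTT after a 72 h compound exposure (37° C, 5% CO2) of RPMI8226 myeloma cells seeded at 6000 per well in 1640 medium with 10% fetal bovine serum. Growth inhibition was expressed relative to untreated cells, taken as 0%.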

Kasumi-1 cell line = assay: leukemia cell growth inhibition, MTT; type: cell-based; conditions: Homo sapiens; for inhibition at 16 µg/mL: Kasumi-1, 16 μg/mL compound, 72 h, read-out: IR (cell proliferation inhibition rate); for IC50: Kasumi-1, 72 h
In short: (§1)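 Proliferation inhibition was read by MTT after 72 h of compound exposure (37 °C, 5% CO2), untreated wells defining 0%. Each well held 6000 cells in 1640 medium plus 10% fetal bovine serum, with test compounds at varied concentrations.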

Jurkat cell line = assay: leukemia cell growth inhibition, MTT; type: cell-based; conditions: Homo sapiens, 72 h; for inhibition at 16 µg/mL: 16 μg/mL compound, read-out: IR (cell proliferation inhibition rate)
In short: as §1

NB4 cell line = assay: leukemia cell growth inhibition, MTT; type: cell-based; conditions: Homo sapiens, NB-4; for inhibition at 16 µg/mL: NB4, 16 μg/mL compound, 72 h, read-out: IR (cell proliferation inhibition rate); for IC50: NB4, 72 h
In short: as §1

H9 cell line = assay: leukemia cell growth inhibition, MTT; type: cell-based; conditions: Homo sapiens; for IC50: H9, 72 h; for inhibition at 16 µg/mL: H9, 16 μg/mL compound, 72 h, read-out: IR (cell proliferation inhibition rate)
In short: as §1

K562/adr cell line = assay: leukemia cell growth inhibition, MTT; type: cell-based; conditions: Homo sapiens, 72 h; for IC50: K562/Adr; for inhibition at 16 µg/mL: K562/adr, 16 μg/mL compound, read-out: IR (cell proliferation inhibition rate)
In short: as §1

A549 cell line = assay: solid tumor cell growth inhibition, MTT; type: cell-based; conditions: Homo sapiens; for IC50: A549, 72 h; for inhibition at 16 µg/mL: A549, 16 μg/mL compound, 72 h, read-out: IR (cell proliferation inhibition rate)
In short: (§2)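 4000 cells/well, DMEM high glucose + 10% FBS, 37° C/5% CO2; 24 h attach, compound (range of concentrations) 72 h; MTT viability; untreated control = 0% inhibition.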

PC-3 cell line = assay: solid tumor cell growth inhibition, MTT; type: cell-based; conditions: Homo sapiens; for IC50: PC-3, 72 h; for inhibition at 16 µg/mL: PC-3, 16 μg/mL compound, 72 h, read-out: IR (cell proliferation inhibition rate)
In short: as §2

CaES-17 cell line = assay: solid tumor cell growth inhibition, MTT; type: cell-based; conditions: Homo sapiens, CaEs17; for inhibition at 16 µg/mL: CaES-17, 16 μg/mL compound, 72 h, read-out: IR (cell proliferation inhibition rate); for IC50: CaES-17, 72 h
In short: as §2

PANC-1 cell line = assay: solid tumor cell growth inhibition, MTT; type: cell-based; conditions: Homo sapiens; for IC50: PANC-1, 72 h; for inhibition at 16 µg/mL: PANC-1, 16 μg/mL compound, 72 h, read-out: IR (cell proliferation inhibition rate)
In short: as §2

SK-OV-3 cell line = assay: solid tumor cell growth inhibition, MTT; type: cell-based; conditions: Homo sapiens; for IC50: SK-OV-3, 72 h; for inhibition at 16 µg/mL: SK-OV-3, 16 μg/mL compound, 72 h, read-out: IR (cell proliferation inhibition rate)
In short: as §2

Hep-2 cell line = assay: solid tumor cell growth inhibition, MTT; type: cell-based; conditions: Homo sapiens; for IC50: HEp-2, 72 h; for inhibition at 16 µg/mL: Hep-2, 16 μg/mL compound, 72 h, read-out: IR (cell proliferation inhibition rate)
In short: as §2

RKO cell line = assay: solid tumor cell growth inhibition, MTT; type: cell-based; conditions: Homo sapiens, 72 h; for inhibition at 16 µg/mL: 16 μg/mL compound, read-out: IR (cell proliferation inhibition rate)
In short: as §2

MG-63 cell line = assay: solid tumor cell growth inhibition, MTT; type: cell-based; conditions: Homo sapiens; for IC50: MG-63, 72 h; for inhibition at 16 µg/mL: MG-63, 16 μg/mL compound, 72 h, read-out: IR (cell proliferation inhibition rate)
In short: as §2

Becap37 cell line = assay: solid tumor cell growth inhibition, MTT; type: cell-based; conditions: Homo sapiens; for inhibition at 16 µg/mL: Becap37, 16 μg/mL compound, 72 h, read-out: IR (cell proliferation inhibition rate); for IC50: Becap37, 72 h
In short: as §2

Hela cell line = assay: solid tumor cell growth inhibition, MTT; type: cell-based; conditions: Homo sapiens, 72 h; for IC50: HeLa; for inhibition at 16 µg/mL: Hela, 16 μg/mL compound, read-out: IR (cell proliferation inhibition rate)
In short: as §2

MGC 803 cell line = assay: solid tumor cell growth inhibition, MTT; type: cell-based; conditions: Homo sapiens; for inhibition at 16 µg/mL: MGC 803, 16 μg/mL compound, 72 h, read-out: IR (cell proliferation inhibition rate); for IC50: MGC 803, 72 h
In short: as §2

CNE cell line = assay: solid tumor cell growth inhibition, MTT; type: cell-based; conditions: Homo sapiens, 72 h; for inhibition at 16 µg/mL: 16 μg/mL compound, read-out: IR (cell proliferation inhibition rate)
In short: as §2

U87 MG cell line = assay: solid tumor cell growth inhibition, MTT; type: cell-based; conditions: Homo sapiens, U-87 MG, 72 h; for inhibition at 16 µg/mL: 16 μg/mL compound, read-out: IR (cell proliferation inhibition rate)
In short: as §2

Hep G2 cell line = assay: solid tumor cell growth inhibition, MTT; type: cell-based, human; conditions: Homo sapiens; for inhibition at 16 µg/mL: HepG2, 72 h, Hep G2, 16 μg/mL compound, 72 h, read-out: IR (cell proliferation inhibition rate); for IC50: HepG2, Hep G2, 72 h
In short: as §2

| SMILES | inhibition at 16 µg/mL (RPMI8226 cell line) [%] | IC50 (RPMI8226 cell line) [µg/mL] | inhibition at 16 µg/mL (Kasumi-1 cell line) [%] | IC50 (Kasumi-1 cell line) [µg/mL] | inhibition at 16 µg/mL (Jurkat cell line) [%] | IC50 (Jurkat cell line) [µg/mL] | inhibition at 16 µg/mL (NB4 cell line) [%] | IC50 (NB4 cell line) [µg/mL] | IC50 (H9 cell line) [µg/mL] | inhibition at 16 µg/mL (H9 cell line) [%] | IC50 (K562/adr cell line) [µg/mL] | inhibition at 16 µg/mL (K562/adr cell line) [%] | IC50 (A549 cell line) [µg/mL] | inhibition at 16 µg/mL (A549 cell line) [%] | IC50 (PC-3 cell line) [µg/mL] | inhibition at 16 µg/mL (PC-3 cell line) [%] | inhibition at 16 µg/mL (CaES-17 cell line) [%] | IC50 (CaES-17 cell line) [µg/mL] | IC50 (PANC-1 cell line) [µg/mL] | inhibition at 16 µg/mL (PANC-1 cell line) [%] | also measured |
| --- | --- | --- | --- | --- | --- | --- | --- | --- | --- | --- | --- | --- | --- | --- | --- | --- | --- | --- | --- | --- | --- |
| COC(=O)[C@]12CCC(C)(C)CC1C1=CCC3[C@@]4(C)CC(C(=O)NC5CC5)C(=O)C(C)(C)C4CC[C@@]3(C)[C@]1(C)CC2 (some centres unmarked) [BS-OA-034] | 15.5 | > 16 | 22.6 | > 16 | -19.6 | > 16 | 22.3 | > 16 | > 16 | 22.1 | > 16 | 25.3 | > 16 | 5.3 | > 16 | 19 | -6.7 | > 16 | > 16 | -9.9 | IC50 (SK-OV-3 cell line): > 16 µg/mL; inhibition at 16 µg/mL (SK-OV-3 cell line): 21.3%; IC50 (Hep-2 cell line): > 16 µg/mL; inhibition at 16 µg/mL (Hep-2 cell line): 5.4%; inhibition at 16 µg/mL (RKO cell line): -41%; IC50 (RKO cell line): > 16 µg/mL; IC50 (MG-63 cell line): > 16 µg/mL; inhibition at 16 µg/mL (MG-63 cell line): -5.4%; inhibition at 16 µg/mL (Becap37 cell line): -6.7%; IC50 (Becap37 cell line): > 16 µg/mL; IC50 (Hela cell line): > 16 µg/mL; inhibition at 16 µg/mL (Hela cell line): 0.6%; inhibition at 16 µg/mL (MGC 803 cell line): -3.2%; IC50 (MGC 803 cell line): > 16 µg/mL; inhibition at 16 µg/mL (CNE cell line): 16.7%; IC50 (CNE cell line): > 16 µg/mL; inhibition at 16 µg/mL (U87 MG cell line): 18.2%; IC50 (U87 MG cell line): > 16 µg/mL; inhibition at 16 µg/mL (Hep G2 cell line): 8.9%; IC50 (Hep G2 cell line): > 16 µg/mL |
| CCN(CC)CCNC(=O)C1C[C@@]2(C)C(CC[C@]3(C)C2CC=C2C4CC(C)(C)CC[C@]4(C(=O)OC)CC[C@]23C)C(C)(C)C1=O (some centres unmarked) [BS-OA-012] | 99 | 0.74 (≈ 1.21 µM) | 99.3 | 3.18 (≈ 5.21 µM) | 97 | 2.26 (≈ 3.7 µM) | 99.2 | 2.79 (≈ 4.57 µM) | 3.05 (≈ 4.99 µM) | 95 | 1.09 (≈ 1.78 µM) | 99 | 2.83 (≈ 4.63 µM) | 97.4 | 5.08 (≈ 8.32 µM) | 99.7 | 99.1 | 1.91 (≈ 3.13 µM) | 4.73 (≈ 7.74 µM) | 100 | IC50 (SK-OV-3 cell line): 3.77 µg/mL (≈ 6.17 µM); inhibition at 16 µg/mL (SK-OV-3 cell line): 98.9%; IC50 (Hep-2 cell line): 5.5 µg/mL (≈ 9 µM); inhibition at 16 µg/mL (Hep-2 cell line): 99.9%; inhibition at 16 µg/mL (RKO cell line): 97.6%; IC50 (RKO cell line): 2 µg/mL (≈ 3.27 µM); IC50 (MG-63 cell line): 2.2 µg/mL (≈ 3.6 µM); inhibition at 16 µg/mL (MG-63 cell line): 100%; inhibition at 16 µg/mL (Becap37 cell line): 98.4%; IC50 (Becap37 cell line): 4.42 µg/mL (≈ 7.23 µM); IC50 (Hela cell line): 4.19 µg/mL (≈ 6.86 µM); inhibition at 16 µg/mL (Hela cell line): 96.9%; inhibition at 16 µg/mL (MGC 803 cell line): 100%; IC50 (MGC 803 cell line): 2.56 µg/mL (≈ 4.19 µM); inhibition at 16 µg/mL (CNE cell line): 98.8%; IC50 (CNE cell line): 3.74 µg/mL (≈ 6.12 µM); inhibition at 16 µg/mL (U87 MG cell line): 98.5%; IC50 (U87 MG cell line): 2.56 µg/mL (≈ 4.19 µM); inhibition at 16 µg/mL (Hep G2 cell line): > 96%; IC50 (Hep G2 cell line): 2.36 µg/mL (≈ 3.86 µM) |
